Measured values published in US20180255816A1, “SWEETENERS HAVING ENHANCED ORGANOLEPTIC PROPERTIES” (CORNELL UNIVERSITY, priority 2015, published 2018).

Assays:
[1] = compared with dulcoside A; cited from earlier work
[2] = biological target: bovine serum albumin (BSA) (Bos taurus, UniProt P02769); assay: Saturation transfer difference (STD) NMR binding screen with BSA
Excerpt: A first step is to assess binding of the protein to ligand under investigation. Saturation transfer difference (STD) NMR spectroscopy was utilized to screen ligands for binding to proteins. The method is based on the transfer of saturation from the protein to the bound ligands, which exchange into solution where they are detected as a reduction in the intensity of the free ligand signal. By subtracting the spectrum in which the protein is saturated from a spectrum without protein saturation produces a spectrum showing only the difference in which only the signals of the ligand(s) remain. This method was used to identify binding epitopes, because the ligand residues in direct contact with the protein show faster build-up of STD signals. This method involves a several-fold excess of ligand concentration over protein, allowing low […] protein concentrations to be used. […]
FIG. 2A is the pre-saturated 600 MHz ^1H NMR spectrum of a 2 mM rebaudioside A and 50 μM BSA in filtered orange juice with 10% D2O at 25° C. A STD spectrum (FIG. 2B) of 2 mM rebaudioside A and 50 μM BSA in filtered orange juice with on- and off-resonance saturation at 8.56 and 31 ppm, respectively was recorded to validate the stability of rebaudioside A—BSA complex in a natural and complex food matrix. […]

β-lactoglobulin = biological target: T1, β-lactoglobulin (Bos taurus, UniProt P02754); assay: STD NMR binding with β-lactoglobulin; details: 1 mM rebaudioside A, 20 μM β-lactoglobulin, 40° C., pH 3
T1 sequence (P02754 17-178): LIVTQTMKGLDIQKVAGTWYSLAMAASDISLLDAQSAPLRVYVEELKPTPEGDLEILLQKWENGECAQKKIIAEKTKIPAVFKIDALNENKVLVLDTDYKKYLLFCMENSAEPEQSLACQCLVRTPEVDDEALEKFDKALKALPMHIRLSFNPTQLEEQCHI
Excerpt: A first step is to assess binding of the protein to ligand under investigation. Saturation transfer difference (STD) NMR spectroscopy was utilized to screen ligands for binding to proteins. The method is based on the transfer of saturation from the protein to the bound ligands, which exchange into solution where they are detected as a reduction in the intensity of the free ligand signal. By subtracting the spectrum in which the protein is saturated from a spectrum without protein saturation produces a spectrum showing only the difference in which only the signals of the ligand(s) remain. This method was used to identify binding epitopes, because the ligand residues in direct contact with the protein show faster build-up of STD signals. This method involves a several-fold excess of ligand concentration over protein, allowing low […] protein concentrations to be used.
FIG. 8A is the solvent suppressed (WET) ^1H NMR spectrum of a sample containing 1 mM rebaudioside A and 20 μM β-lactoglobulin at 40° C. and pH 3. FIG. 8B is the STD spectrum of the same sample. Separate FIDs were stored with on-resonance saturation at 7.19 ppm and off-resonance saturation at −15 ppm.

panelists = assay: Paired comparison taste test of organoleptic properties by 5 panelists; assay type: in vivo; details: taste panel, solution in 50 mL
Excerpt: The following compositions were formulated and tested for their organoleptic properties through a paired comparison test by 5 panelists.

Chain of bovine serum albumin (BSA) (P02769 25-607): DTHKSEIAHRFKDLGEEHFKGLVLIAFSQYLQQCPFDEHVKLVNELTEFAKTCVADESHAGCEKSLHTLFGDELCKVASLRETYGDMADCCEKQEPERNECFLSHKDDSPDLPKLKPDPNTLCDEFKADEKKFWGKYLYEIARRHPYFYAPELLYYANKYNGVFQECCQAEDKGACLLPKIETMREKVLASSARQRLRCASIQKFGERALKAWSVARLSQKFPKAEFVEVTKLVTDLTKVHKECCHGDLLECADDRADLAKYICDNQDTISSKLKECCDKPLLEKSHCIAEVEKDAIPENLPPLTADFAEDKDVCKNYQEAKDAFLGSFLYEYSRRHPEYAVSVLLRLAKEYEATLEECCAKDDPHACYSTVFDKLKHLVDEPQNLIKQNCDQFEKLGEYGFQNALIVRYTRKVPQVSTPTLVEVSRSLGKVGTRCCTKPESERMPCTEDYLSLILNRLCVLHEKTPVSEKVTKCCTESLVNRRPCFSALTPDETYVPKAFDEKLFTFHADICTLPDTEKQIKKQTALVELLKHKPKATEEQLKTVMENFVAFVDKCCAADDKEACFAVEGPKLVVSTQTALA

Molecule | bitterness relative to dulcoside A [1] | sweetness relative to dulcoside A [1] | binding to BSA by STD spectrum ([2]; 1 mM rebaudioside A, 20 μM BSA, D2O, pH 3.0, 40° C., saturation at 7.19 ppm) | binding to BSA by STD spectrum in food matrix ([2]; 2 mM rebaudioside A, 50 μM BSA, filtered orange juice with 10% D2O, 25° C.) | binding to β-lactoglobulin by STD spectrum (β-lactoglobulin) | Quality: bitter after taste (panelists) | Quality: onset of sweetness (panelists)
C=C1C[C@@]23CC[C@H]4[C@@](C)(CCC[C@@]4(C)C(=O)O[C@@H]4O[C@H](CO)[C@@H](O)[C@H](O)[C@H]4O[C@@H]4O[C@H](CO)[C@@H](O)[C@H](O)[C@H]4O)[C@@H]2CC[C@]1(O[C@@H]1O[C@H](CO)[C@@H](O)[C@H](O[C@@H]2O[C@H](CO)[C@@H](O)[C@H](O)[C@H]2O)[C@H]1O[C@@H]1O[C@H](CO)[C@@H](O)[C@H](O)[C@H]1O)C3 [rebaudioside D] | two-thirds less bitter | around five times sweeter | – | – | – | – | –
rebaudioside A | – | – | binds to BSA | specific binding between Rebaudioside A and BSA occurs | capable of binding to β-lactoglobulin | sweetness and bitter after taste | Slow onset of sweetness
